Laboratory results published in patent publication US20250241926A1, “HETEROCYCLIC COMPOUNDS FOR USE IN THE TREATMENT OF CANCER” (ARTIOS PHARMA LIMITED, priority 2021, published 2025).

Target: T1, Human Polθ polymerase domain (aa1820-2590) (Homo sapiens, UniProt O75417)
T1 construct: Human Polθ polymerase domain (aa1820-2590) was expressed in E. Coli; made in house; host or cells: E. coli
T1 sequence (O75417 1820-2590): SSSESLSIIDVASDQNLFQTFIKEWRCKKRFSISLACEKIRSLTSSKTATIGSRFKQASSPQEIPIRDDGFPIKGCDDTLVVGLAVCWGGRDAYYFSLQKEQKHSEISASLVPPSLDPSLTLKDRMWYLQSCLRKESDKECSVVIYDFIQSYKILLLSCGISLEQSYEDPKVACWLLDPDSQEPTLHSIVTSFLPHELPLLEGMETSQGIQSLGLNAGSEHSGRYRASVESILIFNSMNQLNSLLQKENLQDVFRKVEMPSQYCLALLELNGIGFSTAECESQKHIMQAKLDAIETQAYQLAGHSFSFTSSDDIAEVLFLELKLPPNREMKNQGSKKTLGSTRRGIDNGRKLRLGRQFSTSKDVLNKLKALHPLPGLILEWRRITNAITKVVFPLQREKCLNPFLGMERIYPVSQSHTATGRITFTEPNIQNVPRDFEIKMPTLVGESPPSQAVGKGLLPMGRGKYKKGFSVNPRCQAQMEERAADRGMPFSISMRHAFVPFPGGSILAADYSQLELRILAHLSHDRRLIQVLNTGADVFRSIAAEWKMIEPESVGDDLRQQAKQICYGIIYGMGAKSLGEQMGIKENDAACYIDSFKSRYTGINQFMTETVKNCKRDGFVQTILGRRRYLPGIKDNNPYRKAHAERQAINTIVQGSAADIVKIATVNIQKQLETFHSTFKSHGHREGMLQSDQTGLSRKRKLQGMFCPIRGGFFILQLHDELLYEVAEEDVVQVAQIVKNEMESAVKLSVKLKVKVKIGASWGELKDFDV
Assay: Polθ Polymerase Domain Kinact/Kl Assay (PicoGreen)
Format: biochemical
Details: covalent inhibitors, kobs vs [I] fit, 0.8 nM Polθ, 100 nM DNA substrate
In short: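 E. coli-expressed enzyme (0.8 nM final) was run with 100 nM annealed DNA substrate and dNTPs in Tris pH 7.5 buffer (1% DMSO), with EDTA stops across a time course up to 60 min. Synthesised DNA was read by PicoGreen fluorescence. kobs per inhibitor concentration was fitted from the time courses, and Kinact and KI came from the kobs-vs-[I] plot.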

| Compound | kinact/KI |
| --- | --- |
| C=CC(=O)N1CCN2CCN(CCN3CC[C@H](Nc4nc(C)cc(C(F)(F)F)c4C#N)C(=O)N(C)c4cccc(F)c43)CC2C1 (mixture of isomers) [Example 72B, 2-(((S)-6-(2-((S/R)-8-acryloyloctahydro-2H-pyrazino[1,2-a]pyrazin-2-yl)ethyl)-7-fluoro-1-methyl-2-oxo-1,2,3,4,5,6-hexahydrobenzo[b][1,4]diazocin-3-yl)amino)-6-methyl-4-(trifluoromethyl)nicotinonitrile] | 630000 M⁻¹ s⁻¹ |
| Cc1cc(C(F)(F)F)c(C#N)c(N[C@H]2CCN(CC(O)CN3CCN(C(=O)/C=C/CN(C)C)CC3)c3cc(F)ccc3N(C)C2=O)n1 (mixture of isomers) [Example 34A, 2-(((S)-6-((S/R)-3-(4-((E)-4-(Dimethylamino)but-2-enoyl)piperazin-1-yl)-2-hydroxypropyl)-8-fluoro-1-methyl-2-oxo-1,2,3,4,5,6-hexahydrobenzo[b][1,4]diazocin-3-yl)amino)-6-methyl-4-(trifluoromethyl)nicotinonitrile] | 190000 M⁻¹ s⁻¹ |
| 2-(((S)-6-(2-((1R,4R)-5- (1-Acryloylazetidin-3-yl)- 2,5-diazabicyclo[2.2.1] heptan-2-yl)ethyl)-7- fluoro-1-methyl-2-oxo- 1,2,3,4,5,6-hexahydro- benzo[b][1,4]diazocin-3- yl)amino)-6-methyl-4- (trifluoromethyl)nicotino- nitrile [Example 18] | 230000 M⁻¹ s⁻¹ |

Same assay, conditions: covalent inhibitors, kobs vs [I] fit, 0.8 nM Polθ, 100 nM DNA substrate, read-out: Kinact/KI

| Compound | kinact/KI |
| --- | --- |
| C=CC(=O)N1CC2(CCN(CCN3CC[C@H](Nc4nc(C)cc(C(F)(F)F)c4C#N)C(=O)N(C)c4cccc(F)c43)CC2)C1 [Example 8, (S)-2-((6-(2-(2-Acryloyl-2,7-diazaspiro[3.5]nonan-7-yl)ethyl)-7-fluoro-1-methyl-2-oxo-1,2,3,4,5,6-hexahydrobenzo[b][1,4]diazocin-3-yl)amino)-6-methyl-4-(trifluorometh-yl)nicotinonitrile] | 490000 M⁻¹ s⁻¹ |
| C=CC(=O)N1CC(N2CC(=O)N(C)C(CN3CC[C@H](Nc4nc(C)cc(C(F)(F)F)c4C#N)C(=O)N(C)c4cccc(F)c43)C2)C1 (single isomer, unassigned) [Example 58B] | 40000 M⁻¹ s⁻¹ |
| Cc1cc(C(F)(F)F)c(C#N)c(N[C@H]2CCN(C[C@H]3CN(C4CN(C(=O)/C=C/CN(C)C)C4)CCO3)c3c(F)cccc3N(C)C2=O)n1 [Example 60, 2-(((S)-6-(((R)-4-(1-((E)-4-(Dimethylamino)but-2-enoyl)azetidin-3-yl)morpholin-2-yl)methyl)-7-fluoro-1-methyl-2-oxo-1,2,3,4,5,6-hexahydrobenzo[b][1,4]diazocin-3-yl)amino)-6-methyl-4-(trifluoromethyl)nicotinonitrile] | 240000 M⁻¹ s⁻¹ |
| C=CC(=O)N1CCN(CCCN2CC[C@H](Nc3nc(C)cc(C(F)(F)F)c3C#N)C(=O)N(C)c3ccc(F)cc32)CC1 [Example 38, (S)-2-((6-(3-(4-Acryloylpiperazin-1-yl)propyl)-8-fluoro-1-methyl-2-oxo-1,2,3,4,5,6-hexahydrobenzo[b][1,4]diazocin-3-yl)amino)-6-methyl-4-(trifluoromethyl)nicotinonitrile] | 480000 M⁻¹ s⁻¹ |
| C=CC(=O)N1CCN(CC(O)CN2CC[C@H](Nc3nc(C)cc(C(F)(F)F)c3C#N)C(=O)N(C)c3ccc(F)cc32)CC1 (single isomer, unassigned) [Example 33B] | 120000 M⁻¹ s⁻¹ |
| Cc1cc(C(F)(F)F)c(C#N)c(N[C@H]2CCN(CCCOC3CN(C(=O)/C=C/CN(C)C)C3)c3cc(F)cc(F)c3N(C)C2=O)n1 [Example 43, (S,E)-2-((6-(3-((1-(4-(Dimethylamino)but-2-enoyl)azetidin-3-yl)oxy)propyl)-8,10-difluoro-1-methyl-2-oxo-1,2,3,4,5,6-hexahydrobenzo[b][1,4]diazocin-3-yl)amino)-6-methyl-4-(trifluoromethyl)nicotinonitrile] | 900000 M⁻¹ s⁻¹ |
| Cc1cc(C(F)(F)F)c(C#N)c(N[C@H]2CCN(CCOC3CCN(C(=O)/C=C/CN(C)C)CC3)c3c(F)cccc3N(C)C2=O)n1 [Example 49, (S,E)-2-((6-(2-((1-(4-(Dimethyl-amino)but-2-enoyl)piperidin-4-yl)oxy)ethyl)-7-fluoro-1-methyl-2-oxo-1,2,3,4,5,6-hexahydrobenzo [b][1,4]diazocin-3-yl)amino)-6-methyl-4-(tri-fluoromethyl)-nicotinonitrile] | 110000 M⁻¹ s⁻¹ |
| Cc1cc(C(F)(F)F)c(C#N)c(N[C@H]2CCN(CCOC3CN(C(=O)/C=C/CN(C)C)C3)c3ccccc3N(C)C2=O)n1 [Example 50, (S,E)-2-((6-(2-((1-(4-(Dimethylamino)but-2-enoyl)azetidin-3-yl)oxy)ethyl)-1-methyl-2-oxo-1,2,3,4,5,6-hexahydrobenzo[b][1,4]diazocin-3-yl)amino)-6-methyl-4-(trifluoromethyl)nicotinonitrile] | 110000 M⁻¹ s⁻¹ |
| C#CCN1CCN(CCN2CC[C@H](Nc3nc(C)cc(C(F)(F)F)c3C#N)C(=O)N(C)c3cccc(F)c32)CC12CN(C(=O)C=C)C2 [Example 25, (S)-2-((6-(2-(2-Acryloyl-5-(prop-2-yn-1-yl)-2,5,8-triazaspiro[3.5]nonan-8-yl)ethyl)-7-fluoro-1-methyl-2-oxo-1,2,3,4,5,6-hexahydrobenzo[b][1,4]diazocin-3-yl)amino)-6-methyl-4-(trifluoromethyl)nicotinonitrile] | 1.6e+06 M⁻¹ s⁻¹ |
| Cc1cc(C(F)(F)F)c(C#N)c(N[C@H]2CCN(CC(O)CN3CCN(C(=O)/C=C/CN(C)C)CC3)c3c(F)cccc3N(C)C2=O)n1 (single isomer, unassigned) [Example 32B] | 1e+06 M⁻¹ s⁻¹ |
| C#CCN1CCN(CCN2CC[C@H](Nc3nc(C)cc(C(F)(F)F)c3C#N)C(=O)N(C)c3cccc(F)c32)CC12CN(C(=O)/C=C/CN(C)C)C2 [Example 26, (S,E)-2-((6-(2-(2-(4-(Dimethylamino)but-2-enoyl)-5-(prop-2-yn-1-yl)-2,5,8-triazaspiro[3.5]nonan-8-yl)ethyl)-7-fluoro-1-methyl-2-oxo-1,2,3,4,5,6-hexahydrobenzo[b][1,4]diazocin-3-yl)amino)-6-methyl-4-(trifluoromethyl)nicotinonitrile] | 2.1e+06 M⁻¹ s⁻¹ |
| C=CC(=O)N1CCN(CC(O)CN2CC[C@H](Nc3nc(C)cc(C(F)(F)F)c3C#N)C(=O)N(C)c3ccccc32)CC1 (stereo partly drawn) [Example 35, 2-(((3S)-6-(3-(4-Acryloylpiperazin-1-yl)-2-hydroxypropyl)-1-methyl-2-oxo-1,2,3,4,5,6-hexahydrobenzo[b][1,4]diazocin-3-yl)amino)-6-methyl-4-(trifluoromethyl)nicotinonitrile] | 340000 M⁻¹ s⁻¹ |
